# From patent publication EP0084597A1, “Triazole and imidazole derivatives and pharmaceutical preparations containing them” (BAYER AG, priority 1981, dated 1983)
# Legend:
# [1] = tested on: Aspergillus fumig.; experiment: Antimycotic in-vitro activity, serial dilution test (MIC); type: cell-based, Aspergillus fumigatus; conditions: Sabouraud medium, 20°C, inoculum 5 x 10^4 germs/ml; for MIC: Aspergillus, 96 h, read-out: MHK-Werte in γ/ml Nährmedium, Aspergillus fumig.
# Experimental: (§1) Die in-vitro-Prüfungen wurden im Reihenverdünnungstest mit Keiminokula von durchschnittlich 5 x 10^4 Keimen/ml Substrat durchgeführt. Als Nährmedium dienten • a) für Dermatophyten und Schimmelpilze: Sabourand's milieu d'epreuve • b) für Hefen: Fleischextrakt-Traubenzucker-Bouillon.
# (§2) Die Bebrütungstemperatur betrug 20°C, die Bebrütungsdauer lag bei 24 bis 96 Stunden bei Hefen und 96 Stunden bei Dermatophyten und Schimmelpilzen.
# [2] = tested on: Trichophyton mentagr.; experiment: as above; type: cell-based, Trichophyton mentagrophytes; conditions: Sabouraud medium, 20°C, 96 hours, inoculum 5 x 10^4 germs/ml; for MIC: Trichophyton, read-out: MHK-Werte in γ/ml Nährmedium, Trichophyton mentagr.
# Experimental: as §1, §2
# [3] = tested on: Dermatophyten und Schimmelpilze, Hefen; experiment: Antimycotic in-vitro activity, serial dilution test, overall comparison with known compounds; type: cell-based; conditions: compared with known compounds (A),(B),(C) and (D)
# Experimental: as §1, §2
# [4] = tested on: Candida-Zellen; experiment: Antimycotic in-vivo activity (oral) in mouse candidosis; design: species or system Mäuse vom Typ SPF-CF1; key: +++++: sehr gute Wirkung = 90 % Ueberlebende am 6.Tag p.i.; ++++: gute Wirkung = 80 % Ueberlebende am 6.Tag p.i.; +++: Wirkung = 60 % Ueberlebende am 6.Tag p.i.; ++: schwache Wirkung = 40 % Ueberlebende am 6.Tag p.i.; +: Spur Wirkung; k.W.: keine Wirkung
# Experimental: Mäuse vom Typ SPF-CF1 wurden intravenös mit 1 - 2 x 10^6 logarithmisch wachsenden Candida-Zellen, die in physiologischer Kochsalzlösung suspendiert werden, infiziert. Eine Stunde vor und sieben Stunden nach der Infektion werden die Tiere mit jeweils 50 - 100 mg/kg Körpergewicht der Präparate oral behandelt.
# Uhbehandelte Tiere starben 3 bis 6 Tage post infektionem. Die Ueberlebensrate am 6.Tag post infektionem betrug bei uhbehandelten Kontrolltieren etwa 5 %.
# • +++++ = sehr gute Wirkung = 90 % Ueberlebende am 6.Tag p.i. • ++++ = gute Wirkung = 80 % Ueberlebende am 6.Tag p.i. • +++ = Wirkung = 60 % Ueberlebende am 6.Tag p.i. • ++ = schwache Wirkung = 40 % Ueberlebende am 6.Tag p.i. • + = Spur Wirkung = k.W. = keine Wirkung
# [5] = tested on: Trichophyton mentagrophytes; experiment: Antimycotic in-vivo activity (local) in experimental guinea pig trichophytosis; design: species or system Meerschweinchen; key to Wirkung: +++++: sehr gute Wirkung = keine Infektionszeichen am 12.-15.Tag p.i.; ++++: gute Wirkung = geringe Rötung, vereinzelt Schuppen; +++: Wirkung = Rötung, Schuppung, ohne Haarausfall; ++: schwache Wirkung = Rötung, Schuppung, Haarausfall; +: Spur Wirkung = flächiger Haarausfall, entzündliche Hautreaktion; conditions: for Wirkung: local treatment 1x daily from day 3 p.i. with a 15% solution in dimethylsulfoxide : glycerol = 1 : 4, signs of infection day 12-15 p.i.; for Wirkungen: local treatment
# [6] = tested on: Candida albicans; experiment: Antimycotic in-vitro activity, serial dilution test (MIC); type: cell-based; conditions: meat extract-glucose broth, 20°C, 24 to 96 hours, inoculum 5 x 10^4 germs/ml; for MIC: Candida albicans, read-out: MHK-Werte in γ/ml Nährmedium, Candida albicans
# Experimental: as §1, §2
# [7] = tested on: Torulopsis glabrata; experiment: as above; type: cell-based; conditions: meat extract-glucose broth, 20°C, 24 to 96 hours, inoculum 5 x 10^4 germs/ml; for MIC: Nakaseomyces glabratus, read-out: MHK-Werte in γ/ml Nährmedium, Torulopsis glabrata
# Experimental: as §1, §2
# [8] = tested on: Microsporum canis; experiment: as above; type: cell-based; conditions: Sabouraud medium, 20°C, inoculum 5 x 10^4 germs/ml; for MIC: Microsporum canis, 96 h, read-out: MHK-Werte in γ/ml Nährmedium, Microsporum canis; for MHK-Werte in γ/ml Nährmedium, Microsporum canis: 96 hours
# Experimental: as §1, §2
# [9] = mice infected i.v. with 1 - 2 x 10^6 Candida cells, oral 50 - 100 mg/kg one hour before and seven hours after infection, survivors on day 6 p.i.
# [10] = mouse candidosis, oral, compared with known compounds (A), (B), (C) and (D)
Compound,MIC [1],MIC [2],antimykotische Wirkung [3],"Wirkung [4, 9]","Wirkung [4, 10]",Wirkung [5],MIC [6],MIC [7],MIC [8],Wirkungen [5],"MHK-Werte in γ/ml Nährmedium, Aspergillus fumig. ([1]; 96 hours)","MHK-Werte in γ/ml Nährmedium, Trichophyton mentagr. [2]","MHK-Werte in γ/ml Nährmedium, Candida albicans [6]","MHK-Werte in γ/ml Nährmedium, Torulopsis glabrata [7]","MHK-Werte in γ/ml Nährmedium, Microsporum canis [8]"
C=CCC(O)(c1ccc(Oc2ccc(Cl)cc2)cc1)C(CCC)n1cncn1 (stereo not drawn) [Beispiel 46],32 mg/L,< 1 mg/L,bessere antimykotische Wirkung,++++ (gute Wirkung = 80 % Ueberlebende am 6.Tag p.i.),bessere Wirkung,+,< 1 mg/L,8 mg/L,8 mg/L,–,–,–,–,–,–
"CCCC(C(O)c1ccc(Oc2ccc(Cl)cc2)cc1)n1cncn1 (single isomer, unassigned) [Beispiel 32]",–,–,–,+++++ (sehr gute Wirkung = 90 % Ueberlebende am 6.Tag p.i.),bessere Wirkung,+++,–,–,–,bestimmte Wirkungen,–,–,–,–,–
"CCC(C(O)c1ccc(Oc2ccc(Cl)cc2)cc1)n1cncn1 (single isomer, unassigned) [Beispiel 30]",–,–,bessere antimykotische Wirkung,+++ (Wirkung = 60 % Ueberlebende am 6.Tag p.i.),bessere Wirkung,++,–,–,–,bestimmte Wirkungen,>64 µg/mL,<1 µg/mL,<1 µg/mL,<1 µg/mL,32 µg/mL
CCCC(n1cncn1)C(C)(O)c1ccc(Oc2ccc(Cl)cc2)cc1 (stereo not drawn) [Beispiel 43],> 64 mg/L,< 1 mg/L,bessere antimykotische Wirkung,+++++ (sehr gute Wirkung = 90 % Ueberlebende am 6.Tag p.i.),bessere Wirkung,+++,< 1 mg/L,4 mg/L,16 mg/L,bestimmte Wirkungen,–,–,–,–,–
CC(n1cncn1)C(O)(Cc1ccc(Cl)cc1)c1ccc(Oc2ccc(Cl)cc2)cc1 (stereo not drawn) [Beispiel 45],> 64 mg/L,2 mg/L,bessere antimykotische Wirkung,+,bessere Wirkung,+,< 1 mg/L,< 1 mg/L,32 mg/L,bestimmte Wirkungen,–,–,–,–,–
CC(C(O)c1ccc(Oc2ccc(Cl)cc2)cc1)n1cncn1 (stereo not drawn) [Beispiel 35],32 mg/L,< 1 mg/L,bessere antimykotische Wirkung,+++ (Wirkung = 60 % Ueberlebende am 6.Tag p.i.),bessere Wirkung,+++,< 1 mg/L,2 mg/L,8 mg/L,bestimmte Wirkungen,–,–,–,–,–
Cc1cccc(Cl)c1Oc1ccc(C(O)Cn2cncn2)cc1 (stereo not drawn) [Beispiel 47],8 mg/L,< 1 mg/L,bessere antimykotische Wirkung,++++ (gute Wirkung = 80 % Ueberlebende am 6.Tag p.i.),bessere Wirkung,++++,< 1 mg/L,< 1 mg/L,8 mg/L,bestimmte Wirkungen,–,–,–,–,–
CCCC(C(=O)c1ccc(Oc2ccc(Cl)cc2)cc1)n1cncn1 (stereo not drawn) [Beispiel 6],–,–,–,+++ (Wirkung = 60 % Ueberlebende am 6.Tag p.i.),bessere Wirkung,++++,–,–,–,bestimmte Wirkungen,–,–,–,–,–
CCC(C(=O)c1ccc(Oc2ccc(Cl)cc2)cc1)n1ccnc1 (stereo not drawn) [Beispiel 24],8 mg/L,4 mg/L,bessere antimykotische Wirkung,+++ (Wirkung = 60 % Ueberlebende am 6.Tag p.i.),bessere Wirkung,+++,4 mg/L,8 mg/L,4 mg/L,bestimmte Wirkungen,–,–,–,–,–
"CCC(C(O)c1ccc(Oc2ccc(Cl)cc2)cc1)n1cncn1 (single isomer, unassigned) [Beispiel 29]",32 mg/L,< 1 mg/L,bessere antimykotische Wirkung,+++++ (sehr gute Wirkung = 90 % Ueberlebende am 6.Tag p.i.),bessere Wirkung,+++,–,–,–,bestimmte Wirkungen,–,–,8 µg/mL,8 µg/mL,8 µg/mL
